From patent publication US20240287351A1, “ENGINEERED MULTIFUNCTIONAL PARTICLES AND THIN DURABLE COATINGS COMPRISING CROSSLINKED SILANE POLYMERS CONTAINING UREA” (Bar-Ilan University, priority 2020, published 2024)

Test system: microorganisms
Assay: Antimicrobial activity after organic materials and repetitive microbial loading cycles
Conditions: after exposure to organic materials and repetitive microbial loading cycles

Compound: [Na+].[O-]Cl [bleach, sodium hypochlorite]
- retention of antimicrobial activity: losing its biocidal activity rapidly
